Measured values as given in patent publication US20260176232A1, “PROBENECID COMPOUNDS FOR THE TREATMENT OF INFLAMMASOME-MEDIATED DERMATOLOGICAL CONDITIONS” (Bacainn Biotherapeutics, Ltd., priority 2022, published 2026).

Tests used:
Recombinant NLRP3 = assay: Photo-affinity labelling of recombinant NLRP3, anti-PEG immunoblot (FIG. 9C); format: binding; settings: inferred from photo-affinity probes ADS165, ADS167
NLRP1 inflammasome = assay: IL-1β secretion in macrophages challenged with L18-MDP (FIG. 4C); format: cell-based, human; settings: BT032 20, 100 μM; MCC950 5 μM; L18-MDP 100 μg/ml 16 h
Text: In vitro stimulation of human macrophages.

[1] = molecular target: T1, recombinant full length NLRP1 (Homo sapiens, UniProt Q9C000); assay: Photo-affinity labelling of recombinant full length NLRP1, anti-PEG immunoblot (FIG. 9E); format: binding; settings: inferred from photo-affinity probes ADS165, ADS167
T1 sequence (Q9C000 1-1473): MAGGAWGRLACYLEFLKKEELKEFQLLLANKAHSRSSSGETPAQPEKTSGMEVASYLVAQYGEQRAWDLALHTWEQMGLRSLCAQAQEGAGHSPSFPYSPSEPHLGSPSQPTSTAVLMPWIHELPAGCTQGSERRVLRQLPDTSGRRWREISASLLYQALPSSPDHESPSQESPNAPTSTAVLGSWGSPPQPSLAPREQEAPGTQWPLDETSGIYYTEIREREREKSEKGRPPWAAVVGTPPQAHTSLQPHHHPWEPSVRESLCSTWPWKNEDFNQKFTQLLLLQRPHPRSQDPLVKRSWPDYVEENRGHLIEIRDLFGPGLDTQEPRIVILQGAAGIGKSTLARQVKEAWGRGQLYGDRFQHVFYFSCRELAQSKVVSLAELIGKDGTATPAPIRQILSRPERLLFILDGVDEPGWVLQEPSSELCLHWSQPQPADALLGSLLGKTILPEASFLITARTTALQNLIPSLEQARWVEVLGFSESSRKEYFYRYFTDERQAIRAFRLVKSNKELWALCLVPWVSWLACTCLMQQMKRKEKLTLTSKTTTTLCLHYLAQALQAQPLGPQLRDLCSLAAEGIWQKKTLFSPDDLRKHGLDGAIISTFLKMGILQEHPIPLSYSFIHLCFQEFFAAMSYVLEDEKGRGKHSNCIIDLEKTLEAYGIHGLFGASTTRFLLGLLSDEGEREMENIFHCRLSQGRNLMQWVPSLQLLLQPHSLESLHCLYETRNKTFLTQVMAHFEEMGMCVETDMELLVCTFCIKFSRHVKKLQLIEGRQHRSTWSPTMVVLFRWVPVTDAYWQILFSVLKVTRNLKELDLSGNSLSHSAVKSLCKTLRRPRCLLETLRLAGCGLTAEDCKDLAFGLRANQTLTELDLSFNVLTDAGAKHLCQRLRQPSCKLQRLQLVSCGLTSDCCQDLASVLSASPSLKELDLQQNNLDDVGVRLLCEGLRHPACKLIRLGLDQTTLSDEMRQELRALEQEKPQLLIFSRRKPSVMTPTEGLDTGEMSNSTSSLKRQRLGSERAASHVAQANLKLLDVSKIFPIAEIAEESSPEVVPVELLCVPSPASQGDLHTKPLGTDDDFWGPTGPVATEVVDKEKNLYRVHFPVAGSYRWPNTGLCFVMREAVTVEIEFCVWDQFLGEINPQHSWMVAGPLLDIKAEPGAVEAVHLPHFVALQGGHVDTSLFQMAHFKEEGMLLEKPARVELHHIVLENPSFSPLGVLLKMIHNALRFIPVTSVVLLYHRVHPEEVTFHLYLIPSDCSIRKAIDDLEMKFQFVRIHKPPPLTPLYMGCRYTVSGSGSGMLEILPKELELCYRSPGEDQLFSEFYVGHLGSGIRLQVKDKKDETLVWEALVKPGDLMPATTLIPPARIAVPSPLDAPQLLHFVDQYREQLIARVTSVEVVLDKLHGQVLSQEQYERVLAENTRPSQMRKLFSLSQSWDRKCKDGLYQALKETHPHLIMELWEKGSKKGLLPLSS
Method: FIGS. 9A-9F are a series of panels showing ADS032 (also referred to herein as “BT032”) directly binds to NLRP1 and NLRP3. FIGS. 9A and 9B are chemical structures of ADS165 and ADS167. […] ADS165 was then co-incubated for 20 mins and UV treated for 20 mins to cross-link associated compound and protein. Protein was separated by SDS-PAGE and immunoblotted (IB) with anti-PEG to visualize ADS165-linked protein. FIG. 9D: iBMDM cells stably expressing NLRP3-Flag were treated for 30 mins with ADS165, ADS167 (1 mM) or MCC955 (50 μM) for 30 mins, and irradiated with UV 365 nm for 30 mins. Cells were lysed with buffer and immunoprecipitation (IP) of NLRP3 performed with α-NLRP3 (D4D8T) antibody. Levels of precipitated (IP) and total cellular lysate (Input) NLRP3 were determined by immunoblotting with α-NLRP3 (Cryo-2) antibody. FIG. 9F: NLRP1-Flag was expressed in HEK293T cells (1×10^6) for 20 h and treated with ADS165 (1 mM) for 30 mins where indicated, followed by UV 365 nm for a further 30 mins. Cells were lysed with lysis buffer and […] immunoprecipitated with α-Flag (M2) antibody. Proteins were separated by SDS-PAGE and ADS165-linked NLRP1 identified by immunoblot with a-PEG, while total precipitated NLRP1 visualized by immunoblot with α-NLRP1 and total cell lysate by α-Flag. Data shown is representative of three independent experiments.
Next, it was determined whether ADSO32 could interact with NLRP1. […] To further investigate this interaction, ectopically expressed Flag-tagged NLRP1 was immunoprecipitated from cell lysates pretreated or not with ADS165 and exposed to UV light.

SMILES: CCCN(CCC)S(=O)(=O)c1ccc(-c2ccc(CCCC(=O)O)cc2)cc1 [BT032, 4-(4′-(N,N-dipropylsulfamoyl)-[1,1′-biphenyl]-4-yl)butanoic acid]
- direct interaction with NLRP3 (Recombinant NLRP3): directly interacts proximal to the Walker B motif within the NACHT domain
- NLRP1 (L18-MDP)-induced inflammasome activation (NLRP1 inflammasome): dose-dependently inhibited
- direct interaction with NLRP1 [1]: directly interacts proximal to the Walker B motif within the NACHT domain
